From ChEMBL document CHEMBL1201862, “PubChem BioAssay data set” (2004)
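Grown in 96-well plates, cells were treated for 48 hours with each compound at five concentrations. Insufficient inhibition: endpoint recorded as highest concentration tested. GI50: concentration for 50% inhibition of growth.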 Active and inactive are the calls of the source. No stated cut-off is given here; in the data, active = GI50 up to about 1.1 µM and inactive = higher.

Tests used:
Experiment in all cases: NCI anticancer screen, dose series, 48 h
786-0 = test system: 786-0
DMS-114 = test system: DMS-114
HCC 2998 = test system: HCC 2998
HT-29 = test system: HT-29
IGROV-1 = test system: IGROV-1
K562 = test system: K562
KM-20L2 = test system: KM-20L2
LOX IMVI = test system: LOX IMVI
MOLT-4 = test system: MOLT-4
NCI-H226 = test system: NCI-H226
NCI-H23 = test system: NCI-H23
NCI-H460 = test system: NCI-H460
RXF 393 = test system: RXF 393
SK-MEL-2 = test system: SK-MEL-2
SR = test system: SR
SW-620 = test system: SW-620
UACC-62 = test system: UACC-62
Hs-578T = test system: Hs-578T
MDA-MB-231 = test system: MDA-MB-231
MDA-MB-435 = test system: MDA-MB-435

CSc1nc(SC)c2c(C#N)n[nH]c2n1
GI50 (786-0): > 100 µM (inactive)
GI50 (DMS-114): > 100 µM (inactive)
GI50 (HCC 2998): > 100 µM (inactive)
GI50 (HT-29): > 100 µM (inactive)
GI50 (IGROV-1): > 100 µM (inactive)
GI50 (K562): > 100 µM (inactive)
GI50 (KM-20L2): > 100 µM (inactive)
GI50 (LOX IMVI): > 100 µM (inactive)
GI50 (MOLT-4): > 100 µM (inactive)
GI50 (NCI-H226): > 100 µM (inactive)
GI50 (NCI-H23): > 100 µM (inactive)
GI50 (NCI-H460): > 100 µM (inactive)
GI50 (RXF 393): > 100 µM (inactive)
GI50 (SK-MEL-2): > 100 µM (inactive)
GI50 (SR): > 100 µM (inactive)
GI50 (SW-620): > 100 µM (inactive)
GI50 (UACC-62): > 100 µM (inactive)

CC1(OCc2ccccc2)C(=O)N2C1NCC2(C)C (centres undefined)
GI50 (786-0): > 100 µM (inactive)
GI50 (DMS-114): > 100 µM (inactive)
GI50 (HCC 2998): > 100 µM (inactive)
GI50 (HT-29): > 100 µM (inactive)
GI50 (IGROV-1): > 100 µM (inactive)
GI50 (K562): > 100 µM (inactive)
GI50 (KM-20L2): > 100 µM (inactive)
GI50 (LOX IMVI): > 100 µM (inactive)
GI50 (MOLT-4): > 100 µM (inactive)
GI50 (NCI-H226): > 100 µM (inactive)
GI50 (NCI-H23): > 100 µM (inactive)
GI50 (NCI-H460): > 100 µM (inactive)
GI50 (RXF 393): > 100 µM (inactive)
GI50 (SK-MEL-2): > 100 µM (inactive)
GI50 (SR): > 100 µM (inactive)
GI50 (SW-620): > 100 µM (inactive)
GI50 (UACC-62): > 100 µM (inactive)

CCCCCCCCCCCCCC(=O)CBr
GI50 (786-0): 5.13 µM (inactive)
GI50 (DMS-114): 3.9 µM (inactive)
GI50 (HCC 2998): 15.8 µM (inactive)
GI50 (HT-29): 15.9 µM (inactive)
GI50 (Hs-578T): 5.64 µM (inactive)
GI50 (IGROV-1): 5.79 µM (inactive)
GI50 (K562): 3.53 µM (inactive)
GI50 (KM-20L2): 15.6 µM (inactive)
GI50 (LOX IMVI): 3.83 µM (inactive)
GI50 (MDA-MB-231): 16.3 µM (inactive)
GI50 (MDA-MB-435): 16.7 µM (inactive)
GI50 (MOLT-4): 0.764 µM (active)
GI50 (NCI-H226): 17.4 µM (inactive)
GI50 (NCI-H23): 9.77 µM (inactive)
GI50 (NCI-H460): 18 µM (inactive)
GI50 (RXF 393): 3.3 µM (inactive)
GI50 (SK-MEL-2): 11.5 µM (inactive)
GI50 (SR): 1.04 µM (active)
GI50 (SW-620): 12 µM (inactive)
GI50 (UACC-62): 9.79 µM (inactive)

CO[C@@]1(c2ccccc2)O[C@H]2OCCC2[C@H]1c1ccc(Cl)cc1 (some centres undefined)
GI50 (786-0): 32 µM (inactive)
GI50 (DMS-114): 31.8 µM (inactive)
GI50 (HCC 2998): 35.3 µM (inactive)
GI50 (HT-29): 20.3 µM (inactive)
GI50 (IGROV-1): 97.7 µM (inactive)
GI50 (K562): 29.9 µM (inactive)
GI50 (KM-20L2): 32.1 µM (inactive)
GI50 (LOX IMVI): 32.4 µM (inactive)
GI50 (MOLT-4): 17.9 µM (inactive)
GI50 (NCI-H226): 33.4 µM (inactive)
GI50 (NCI-H23): 30.4 µM (inactive)
GI50 (NCI-H460): 23.2 µM (inactive)
GI50 (RXF 393): 17.7 µM (inactive)
GI50 (SK-MEL-2): 31.8 µM (inactive)
GI50 (SR): 29 µM (inactive)
GI50 (SW-620): 32.7 µM (inactive)
GI50 (UACC-62): 34.2 µM (inactive)

CCOC(=O)C1=C(C)Nc2ccccc2S1
GI50 (786-0): > 100 µM (inactive)
GI50 (DMS-114): > 100 µM (inactive)
GI50 (HCC 2998): > 100 µM (inactive)
GI50 (HT-29): > 100 µM (inactive)
GI50 (IGROV-1): > 100 µM (inactive)
GI50 (K562): > 100 µM (inactive)
GI50 (KM-20L2): > 100 µM (inactive)
GI50 (LOX IMVI): 94.8 µM (inactive)
GI50 (MOLT-4): 46.1 µM (inactive)
GI50 (NCI-H226): > 100 µM (inactive)
GI50 (NCI-H23): > 100 µM (inactive)
GI50 (NCI-H460): > 100 µM (inactive)
GI50 (RXF 393): 51.9 µM (inactive)
GI50 (SK-MEL-2): > 100 µM (inactive)
GI50 (SR): > 100 µM (inactive)
GI50 (SW-620): > 100 µM (inactive)
GI50 (UACC-62): 3.21 µM (inactive)

Cc1c(-c2cc(-c3ccccc3)n[nH]c2=O)c2ccccc2n1C
GI50 (786-0): > 100 µM (inactive)
GI50 (DMS-114): > 100 µM (inactive)
GI50 (HCC 2998): > 100 µM (inactive)
GI50 (HT-29): > 100 µM (inactive)
GI50 (IGROV-1): > 100 µM (inactive)
GI50 (K562): > 100 µM (inactive)
GI50 (KM-20L2): > 100 µM (inactive)
GI50 (MOLT-4): > 100 µM (inactive)
GI50 (NCI-H226): > 100 µM (inactive)
GI50 (NCI-H23): > 100 µM (inactive)
GI50 (NCI-H460): > 100 µM (inactive)
GI50 (RXF 393): > 61.7 µM (inactive)
GI50 (SK-MEL-2): > 100 µM (inactive)
GI50 (SR): > 100 µM (inactive)
GI50 (SW-620): > 100 µM (inactive)
GI50 (UACC-62): > 100 µM (inactive)

CC(=O)OC(C)C1C2=C(C(=O)CC1(C)O)C(=O)c1c(ccc(-c3ccc4c(c3O)C(=O)C3=C(C4=O)C(C(C)OC(C)=O)C(C)(O)CC3=O)c1O)C2=O (centres undefined)
GI50 (786-0): 1.83 µM (inactive)
GI50 (DMS-114): 0.286 µM (active)
GI50 (HCC 2998): 10.7 µM (inactive)
GI50 (HT-29): 1.72 µM (inactive)
GI50 (Hs-578T): 2.11 µM (inactive)
GI50 (IGROV-1): 9.12 µM (inactive)
GI50 (K562): 0.701 µM (active)
GI50 (KM-20L2): 2.04 µM (inactive)
GI50 (LOX IMVI): 1.42 µM (inactive)
GI50 (MDA-MB-231): 2.42 µM (inactive)
GI50 (MDA-MB-435): 2.14 µM (inactive)
GI50 (MOLT-4): 1.12 µM (inactive)
GI50 (NCI-H226): 9.33 µM (inactive)
GI50 (NCI-H23): 1.47 µM (inactive)
GI50 (NCI-H460): 6.58 µM (inactive)
GI50 (RXF 393): 1.74 µM (inactive)
GI50 (SK-MEL-2): 1.75 µM (inactive)
GI50 (SR): 1.1 µM (active)
GI50 (SW-620): 0.667 µM (active)
GI50 (UACC-62): 1.69 µM (inactive)
